Assay results reported in patent publication US20150190440A1, “BLOOD PRESSURE REDUCING COMPOSITION FABRICATED BY USING MONASCUS PURPUREUS NTU 568 AND PRIMER FOR THE MONASCUS PURPUREUS NTU 568” (Sunway Biotech Co., LTD, priority 2014, published 2015).

How the values were obtained:
Format in all cases: in vivo, rat
[1] = test system: Spontaneous hypertensive rats (SHRs); test: Kidney function, electrolytes and creatine phosphokinase indexes of SHRs; conditions: M: SHR, amlodipine 0.4 mgkg-1day-1
From the text: (§1) Spontaneous hypertensive rats (SHRs) and Wistar-Kyoto strains of normotensive rats (WKYs) are chosen to be experiment animals, wherein the SHRs would spontaneously suffer from the hypertension when they grow to 5˜6 weeks old. Herein, 8-week old SHRs are used for carrying out the experiments, and these 8-week old SHRs and WKYs are pre-fed with chew diet and water for 5 weeks before starting the experiments. Herein, it needs to further explain that, the experiment groups listed in Table 6 are divided to 9 groups. The rats in the 9 groups are fed with the main feeding stuffs (i.e., chew diet and water) during first week to 13-th week. Moreover, the rats in the 9 groups are fed with the main feeding stuffs as well as the extract feeding stuffs at 14-th week in order to accomplish one single oral administration experiments; therefore, the rats in the 9 groups are continuously fed with the main feeding stuffs as well as the extract feeding stuffs starting from 14-th week and continuing for 8 weeks, so as to carry out one chronic administration experiment. The designed experiment groups consist of:
Continuously, please refer to following Table 12, which record the data of kidney function indexes, electrolytes indexes and creatine phosphokinase indexes of SHRs and WKYs in the experiment groups listed in Table 6. From Table 12, it can find that the kidney function indexes, the electrolytes indexes and the creatine phosphokinase indexes of SHRs in 1R, 5R, 1RM, and 5RM groups are normal comparing to the kidney function indexes, the electrolytes indexes and the creatine phosphokinase indexes of SHRs in C group. Moreover, the kidney function indexes, the electrolytes indexes and the creatine phosphokinase indexes of SHRs in W1R and W5R groups are normal comparing to the kidney function indexes, the electrolytes indexes and the creatine phosphokinase indexes of WKYs in WC group. Wherein the kidney function indexes include blood urea nitrogen (BUN), creatinine and uric acid, and the electrolytes indexes include sodium and potassium. […] It is well know that, when the kidney is at a kidney failure situation, the concentration of creatinine and uric acid in blood serum would increase. […] It is well know that, when the muscle is subject to damage, the concentration of CPK in blood serum would increase.

[2] = test system: Spontaneous hypertensive rats (SHRs); test: Heart rate of SHRs; conditions: M: SHR, amlodipine 0.4 mgkg-1day-1
From the text: as §1
Continuously, please refer to following Table 10, which record the heart rate data of SHRs and WKYs in the experiment groups listed in Table 6. From Table 10, it can find that the heart rate of SHRs in 1R, 5R, 1RM, and 5RM groups are normal comparing to the heart rate of SHRs in C group. Moreover, the heart rate of SHRs in W1R and W5R groups are normal comparing to the heart rate of WKYs in WC group.

[3] = test system: Spontaneous hypertensive rats (SHRs); test: Blood pressure after one single oral administration in SHRs; conditions: M: SHR
From the text: (§2) Spontaneous hypertensive rats (SHRs) and Wistar-Kyoto strains of normotensive rats (WKYs) are chosen to be experiment animals, wherein the SHRs would spontaneously suffer from the hypertension when they grow to 5˜6 weeks old. Herein, 8-week old SHRs are used for carrying out the experiments, and these 8-week old SHRs and WKYs are pre-fed with chew diet and water for 5 weeks before starting the experiments. […] The rats in the 9 groups are fed with the main feeding stuffs (i.e., chew diet and water) during first week to 13-th week. Moreover, the rats in the 9 groups are fed with the main feeding stuffs as well as the extract feeding stuffs at 14-th week in order to accomplish one single oral administration experiments; therefore, the rats in the 9 groups are continuously fed with the main feeding stuffs as well as the extract feeding stuffs starting from 14-th week and continuing for 8 weeks, so as to carry out one chronic administration experiment.
According to the body surface area (BSA) equation provided by Food and Drug Administration (FDA), the BSA of a standard person with the body height of 170 cm and the body weight of 65 kg can be calculated through the mathematical calculation formula of BSA (m^2)=0.003207{H^0.3×W^[0.07285−(0.0188×LOG (w))]}, wherein the BSA value obtained from aforesaid calculation formula for the standard person is 1.762 m^2. On the other hand, the BSA value for the SHRs can also be calculated through the mathematical calculation formula of BSA (m^2) (8.99 W^0.6899)/100, and the BSA value is 0.049 m^2. Moreover, because the experiments use “2.2 g” as a standard feeding dosage, the “1-fold” in Table 6 can be calculated to 176 mgkg^−1day^−1 according to BSA value of the SHRs. Herein, it needs to further explain that, M group is taken as a positive control group because amlodipine is a well-known blood pressure lowering substance. In the experiments, the lowest effective dosage (i.e., 1-fold dosage) for amlodipine is defined to 0.4 mgkg^−1day^−1.

[4] = test system: Spontaneous hypertensive rats (SHRs); test: Blood lipids of SHRs; conditions: M: SHR, amlodipine 0.4 mgkg-1day-1
From the text: as §1, with “experiment.” for “experiment. The designed experiment groups consist of:”

[5] = test system: Spontaneous hypertensive rats (SHRs); test: Blood pressure in 8-week chronic administration experiment in SHRs; conditions: M: SHR
From the text: as §2
Moreover, because the experiments use “2.2 g” as a standard feeding dosage, the “1-fold” in Table 6 can be calculated to 176 mgkg^−1day^−1 according to BSA value of the SHRs. Herein, it needs to further explain that, M group is taken as a positive control group because amlodipine is a well-known blood pressure lowering substance. In the experiments, the lowest effective dosage (i.e., 1-fold dosage) for amlodipine is defined to 0.4 mgkg^−1day^−1.

[6] = test system: Spontaneous hypertensive rats (SHRs); test: Liver function indexes of SHRs; conditions: M: SHR, amlodipine 0.4 mgkg-1day-1
From the text: as §1
With reference to following Table 11, which record the liver function indexes data of SHRs and WKYs in the experiment groups listed in Table 6. […] Wherein the liver function indexes data include: aspartate aminotransferase (AST), alanine aminotransferase (ALT), alkaline phosphatase, albumin, globulin, γ-Glutamyltransferase (γ-GT), total protein, and A/G ratio.

[7] = amlodipine 0.4 mgkg-1day-1, 0 hr
[8] = amlodipine 0.4 mgkg-1day-1, 4 hr
[9] = amlodipine 0.4 mgkg-1day-1, 8 hr
[10] = amlodipine 0.4 mgkg-1day-1, 24 hr
[11] = amlodipine 0.4 mgkg-1day-1, 0 week
[12] = amlodipine 0.4 mgkg-1day-1, 2 week
[13] = amlodipine 0.4 mgkg-1day-1, 4 week
[14] = amlodipine 0.4 mgkg-1day-1, 6 week
[15] = amlodipine 0.4 mgkg-1day-1, 8 week

## CCOC(=O)C1=C(COCCN)NC(C)=C(C(=O)OC)C1c1ccccc1Cl (centres unmarked) [amlodipine]
[1]
  BUN: 23.7 ± 0.8 mg/dL
  Creatinine: 0.48 ± 0.1 mg/dL
  Creatinine phosphokinase: 287.0 ± 12.2 U/L
  Potassium: 8.8 ± 0.4 meq/L
  Sodium: 152.4 ± 0.9 meq/L
  Uric acid: 5.8 ± 0.6 mg/dL
[2]; 0 hr
  Heart rate: 402 ± 6.9 bpm
[2]; 2 week
  Heart rate: 402 ± 6.7 bpm
[2]; 4 week
  Heart rate: 404 ± 4.8 bpm
[2]; 6 week
  Heart rate: 403 ± 6.1 bpm
[2]; 8 week
  Heart rate: 402 ± 3.0 bpm
[2]; 4 hr
  Heart rate: 401 ± 6.5 bpm
[2]; 8 hr
  Heart rate: 400 ± 4.8 bpm
[2]; 24 hr
  Heart rate: 402 ± 4.9 bpm
[3]; [7]
  DBP: 143 ± 2.9 mmHg
  SBP: 180 ± 3.6 mmHg
[3]; [8]
  DBP: 143 ± 3.8 mmHg
  SBP: 178 ± 5.4 mmHg
[3]; [9]
  DBP: 134 ± 4.9 mmHg
  SBP: 171 ± 3.1 mmHg
[3]; [10]
  DBP: 137 ± 4.2 mmHg
  SBP: 175 ± 7.6 mmHg
[4]
  Cholesterol: 79.8 ± 3.6 mg/dL
  Cholesterol/HDL-C: 1.3 ± 0.1
  HDL-C: 60.3 ± 1.9 mg/dL
  LDL-C: 10.0 ± 0.7 mg/dL
  Triacylglycerol: 69.3 ± 6.8 mg/dL
[5]; [11]
  DBP: 143 ± 2.9 mmHg
  SBP: 180 ± 3.6 mmHg
[5]; [12]
  DBP: 145 ± 3.6 mmHg
  SBP: 178 ± 5.4 mmHg
[5]; [13]
  DBP: 140 ± 3.8 mmHg
  SBP: 171 ± 3.1 mmHg
[5]; [14]
  DBP: 139 ± 1.9 mmHg
  SBP: 175 ± 7.6 mmHg
[5]; [15]
  DBP: 135 ± 2.7 mmHg
  SBP: 175 ± 7.6 mmHg
[6]
  A/G ratio: 2.1 ± 0.4
  ALT: 85.7 ± 6.1 U/L
  AST: 125.8 ± 4.6 U/L
  Albumin: 5.4 ± 0.2 g/dL
  Alkaline phosphatase: 143.3 ± 7.6 IU/L
  Globulin: 2.6 ± 0.1 g/dL
  Total protein: 8.2 ± 0.1 g/dL
